Experiments:
[1] = test system: Human Umbilical Vein Endothelial Cells (HUVEC); test: Cell growth inhibition on primary HUVEC; format: cell-based
[2] = ORAC antioxidant assay; format: physicochemical
Protocol: ORAC assay was performed based on reported procedures with slight modifications. Chemicals used such as fluorescein sodium salt, AAPH (2,2′-Azobis(2-methylpropionamidine) dihydrochloride), quercetin dehydrate and trolox ((±)-6-Hydroxy-2,5,7,8-tetramethylchromane-2-carboxylic acid) were purchased from Sigma-Aldrich. Compounds were diluted to a final concentration of 100 µg/ml, with total reaction volume of 200 µl. The assay was performed in a 96-well black microplate, with 25 µl of samples, standard (trolox), blank (solvent/PBS) or positive control (quercetin). Subsequently, 150 µl of working fluorescein solution was added to each well. The plate was incubated at 37°C for at least 5 min. Then, 25 µl of AAPH working solution was then added to the wells to make a total volume of 200 µl. […] Data were collected every 2 min for a duration of 2 h, and were analyzed by calculating the differences of area under fluorescence decay curve (AUC) of samples and blank. The values were expressed as Trolox equivalent (TE).
ROS may amplify inflammatory responses via up-regulation or activation of certain genes/transcription factors, such as NF-κB. […] Therefore, we conducted ORAC assays to investigate the antioxidant capacity of complex 5. The ORAC assay uses peroxyl radical as pro-oxidant and the antioxidant activity is quantified via area under curve (AUC). We included quercetin, a known antioxidant, as a positive control.

[3] = test system: IκBα degradation/phosphorylation and p65 translocation; test: Immunoblot, TNFα-stimulated HeLa S3; format: cell-based, human; conditions: HeLa S3, pretreated 4 h, TNFα stimulation
Protocol: Cells were pretreated with or without of complex 5 (25 µg/ml or 50 µg/ml) for 4 h before treatment with LPS (10 ng/ml) or TNFα (10 ng/ml), for the indicated times. The cytoplasmic extracts were prepared by using the hypotonic lysis buffer (10 mM Tris, pH 7.5; 1.5 mM MgCl2; 10 mM KCl; 0.5 mM DTT; 0.5 mM PMSF; 1× Protease Inhibitor, 0.1% NP40) followed by incubation on ice for 20 min and centrifugation at 3k rpm at 4°C for 10 min. The supernatants were collected as cytoplasmic extracts. The nuclear pellets were resuspended in the whole cell lysis buffer (25 mM Tris, pH7.5; 420 mM NaCl; 1.5 mM MgCl2; 0.2 mM EDTA; 25% Glycerol; 0.5 mM DTT; 0.5 mM PMSF; 1× Protease Inhibitor). The nuclear extracts were then collected by centrifugation at 15 krpm at 4°C for 10 min. Immunoblotting was performed using antibodies against PARP (F-2, N-20), HSP90a (C-20), p65 (C-20), IκBα (C-21) and p-IκBα from Santa Cruz Biotech.
To examine whether complex 5 blocks the activation of NF-κB by another agonist, similar experiments were performed on HeLa S3 cells induced with TNFα. Similar to LPS-treated RAW264.7 cells, TNFα-induced translocation of NF-κB p65 in HeLa S3 cells (Figure 5A). […]
Figure 5 Complex 5 blocks TNFα-induced NF-κB nuclear translocation. […] Western blot signal intensities were quantified using ImageJ software. […]

[4] = test system: COX-2 expression; test: TNF-induced COX-2 expression; format: cell-based; conditions: Figure S1
Protocol: In addition, we investigated the effect of complex 5 on NF-κB-mediated gene expression in response to TNFα stimulation in human HeLa S3 cells. We treated HeLa S3 cells with complex 5 for 4 h before TNFα treatment for 4 h.
Supplementary file pone.0100933.s001.pdf: Figure S1 Complex 5 inhibits TNF-induced COX2 expression. (PDF) Click here for additional data file.

[5] = Acute toxicity test in mice; format: in vivo, C57BL/6 mice
From the text: Next, we examined the anti-inflammatory effects of complex 5 in a carrageenan-induced paw edema mouse model. We first tested the acute toxicity effect of complex 5 in C57BL/6 mice.

[6] = Renal functional test (serum) after oral dosing; format: in vivo, C57BL/6 mice; conditions: after two weeks
Protocol: Renal functional test. C57BL/6 mice at age 8-12 weeks old were administrated orally with control PBS or
with various concentrations (125 mg/kg, 250 mg/kg and 500 mg/kg) of complex 5. n= 6 (3 male and 3
female mice)/group. After two weeks, sera were collected from the mice for renal functional test.

Which results are given for NC1=[S+][Ni-2]2([P+](c3ccccc3)(c3ccccc3)c3ccccc3)[O]c3c(O)cccc3C=[N+]2N1.[Cl-] [complex 5, {2-[(2-Carbamothiolylhydrazin-1-ylidene-[kappa]2N1,S)methyl]-6-hydroxyphenolato-[kappa]O1}(triphenylphosphine-[kappa]P)nickel(II) chloride]?
IC50 (cell growth inhibition) [1]: > 80 µg/mL; Antioxidant activity compared to quercetin [2]: low antioxidant activity; Antioxidant capacity, Trolox equivalent [2]: 10.56±0.17 µM TE per 100 µM; IκBα degradation and p65 translocation (immunoblot) [3]: dramatically reduced; TNF-mediated phosphorylation of IκBα (immunoblot) [3]: completely abolished; TNF-induced expression of COX-2 [4]: inhibited TNF-induced expression of COX-2 in a dose dependent manner; Safety judged from renal and liver functional tests ([5]; 125 mg/kg or 250 mg/kg oral): safe for consumption; Safety judged from renal and liver functional tests ([5]; 500 mg/kg oral): may be cytotoxic to the host; Acute toxicity observation ([5]; 14 day observation period): no overt abnormalities; Well tolerated dose ([5]; acute toxicity test): up to 250 mg/kg; Anion Gap ([6]; 125 mg/kg oral): 24.80 mmol/L; CO2 ([6]; 125 mg/kg oral): 18.18 mmol/L; Chlorine ([6]; 125 mg/kg oral): 110.80 mmol/L; Creatinine ([6]; 125 mg/kg oral): < 9 µmol/L; Potassium ([6]; 125 mg/kg oral): 6.68 ± 1.12 mmol/L; Sodium ([6]; 125 mg/kg oral): 147.00 mmol/L; Urea ([6]; 125 mg/kg oral): 10.72 mmol/L; Anion Gap ([6]; 250 mg/kg oral): 26.67 mmol/L; CO2 ([6]; 250 mg/kg oral): 16.36 mmol/L; Chlorine ([6]; 250 mg/kg oral): 111.00 mmol/L; Creatinine ([6]; 250 mg/kg oral): < 9 µmol/L; Potassium ([6]; 250 mg/kg oral): 6.50 ± 0.52 mmol/L; Sodium ([6]; 250 mg/kg oral): 147.50 mmol/L; Urea ([6]; 250 mg/kg oral): 9.96 mmol/L; Anion Gap ([6]; 500 mg/kg oral): 27.00 mmol/L; CO2 ([6]; 500 mg/kg oral): 16.14 mmol/L; Chlorine ([6]; 500 mg/kg oral): 110.83 mmol/L; Creatinine ([6]; 500 mg/kg oral): < 9 µmol/L; Potassium ([6]; 500 mg/kg oral): 5.83 ± 0.74 mmol/L; Sodium ([6]; 500 mg/kg oral): 148.33 mmol/L; Urea ([6]; 500 mg/kg oral): 9.56 mmol/L

— paper PMC4076215, “Nickel(II) Complex of Polyhydroxybenzaldehyde N4-Thiosemicarbazone Exhibits Anti-Inflammatory Activity by Inhibiting NF-κB Transactivation” (PLoS ONE, 2014)
